According to patent publication US20260297070A1, “CYCLIC [COMPOUND LEFT OUT] WRN INHIBITORS” (Nimbus Wadjet, Inc., priority 2023, published 2026):

Target: T1, human Werner helicase (WRN-BV08, Uniprot Q14191, amino acids 517-1235 with L1074F point mutation) (Homo sapiens, UniProt Q14191, L1074F)
T1 construct: Uniprot Q14191, amino acids 517-1235 with L1074F point mutation; TEV-cleavable 8×His (C, cleaved yes); made in house; host or cells: Sf9 insect cells (baculovirus)
Test: WRN (BV08) ADP-Glo Assay
Type: biochemical
Details: 0.15 nM WRN, 5 μM ATP, 0.1 nM DNA duplex, 15 min preincubation, 60 min at 25° C., pH 7.5, 1% DMSO; read-out: ADP-Glo_hWRN_IC50
From the text: Example 2: WRN (BV08) ADP-Glo Assay Protocol
Bovine skin gelatin (BSG), dimethyl sulfoxide (DMSO), Pluronic F-127 and Tris(2-carboxyethyl)phosphine hydrochloride solution (TCEP) were purchased from Sigma-Aldrich at the highest level of purity possible. Bicine buffer solution was purchased from Alfa Aesar and compound NSC-617145 was purchased from Tocris. DNA duplex was synthesized at BGI (Shenzhen, China) and was composed of strand 1 with the sequence 5′-[…]-3′ (SEQ ID NO.: 1) and strand 2 with the sequence 5′-[…]-3′ (SEQ ID NO.: 2). DNA strands were annealed by heating to 95° C. for 5 minutes followed by slow cooling to room temperature. Compounds in 100% DMSO (0.1 μl) were spotted into a 384-well white polystyrene Optiplate-384 (Perkin Elmer) assay plate using a LabCyte Echo 550 (Agilent). DMSO (0.1 μl) was added to columns 12, rows A-H and column 24, rows I-P for the maximum signal control. Compound NSC-617145 (0.1 μl) was added to columns 12, rows I-P and 24, rows A-H for the minimum signal control (100% inhibition). Compounds/DMSO were preincubated for 15 minutes at 25° C. with 5 uL 2×WRN (BV08), prepared as described below, in assay buffer containing 20 mM Bicine (pH=7.5), 1 mM MgCl2, 10 mM KCl, 0.1% Pluronic F-127, 0.005% BSG, 1 mM TCEP. The reaction was initiated by the addition of 5 μl 2× substrate mixture in assay buffer and incubated for 60 minutes at 25° C. The final concentrations of the assay components were 0.15 nM WRN, 5 μM ATP, and 0.1 nM DNA duplex. The final DMSO concentration was 1% and the reference compound concentration (NSC-617145) used for the minimal signal control was 20 μM. The reaction was stopped by the addition of the ADP-Glo Kit components (Promega) as directed and the relative luminescence units (RLU) were read on an Envision 2104 (Perkin Elmer).
% Inhibition Calculation:
Where RLU=relative luminescence units, sample=signal in sample well, and MIN and MAX are the respective minimum and maximum signal controls.
Four-Parameter IC50 Fit Equation:
Where top and bottom are normally allowed to float but may be fixed at 100 or 0 respectively in a 3-parameter fit. Y is the % inhibition and X is the compound concentration.
Molecular Biology and virus production. The DNA encoding human Werner helicase (Uniprot Q14191, amino acids 517-1235 with L1074F point mutation) was generated with codon-optimization for E. coli expression and subcloned into the pFastBac vector with a TEV cleavable 8×His tag (WRN-BV08). The baculovirus from the expression plasmid WRN-BV08 was generated from transfection and amplification following the manufacturer's instructions.
Sf9 cells grown in SF900II media were infected with 1:200 WRN-BV08 P2 virus and incubated for protein expression for 72 h at 27° C. The WRN protein was purified using the following protocol. The cell pellets were thawed and resuspended in buffer A (50 mM Tris, pH 7.5, 500 mM NaCl, 1 mM TCEP, 10% Glycerol) supplemented with 0.5% CHAPS, 1 mM [COMPOUND LEFT OUT], 1 μg/mL Leupeptin, 1 μg/mL Pepstatin, and the Pierce Universal Nuclease and cocktail tablet. Cleared lysates were loaded onto a Ni Sepharose™ excel column and washed with buffer A and bound protein was eluted with buffer A supplemented with 300 mM imidazole. The eluted protein was dialyzed against buffer A and digested by His-tagged TEV (1:5 ratio) overnight at 4° C. ZnCl2 was added into the sample at final 15 μM before loading onto a second Ni Sepharose™ excel column. Untagged WRN protein was eluted from the column with buffer A supplemented with 20 mM imidazole, dialyzed overnight into buffer B (50 mM Tris, pH 7.5, 1 mM TCEP, 10% Glycerol) supplemented with 150 mM NaCl and loaded onto a Heparin column. Proteins were eluted with a step gradient of buffer B supplemented with 150 mM, 200 mM, 300 mM and 500 mM NaCl. […]

T1 sequence (Q14191 with tags, fused parts or gaps L1074F limits assumed): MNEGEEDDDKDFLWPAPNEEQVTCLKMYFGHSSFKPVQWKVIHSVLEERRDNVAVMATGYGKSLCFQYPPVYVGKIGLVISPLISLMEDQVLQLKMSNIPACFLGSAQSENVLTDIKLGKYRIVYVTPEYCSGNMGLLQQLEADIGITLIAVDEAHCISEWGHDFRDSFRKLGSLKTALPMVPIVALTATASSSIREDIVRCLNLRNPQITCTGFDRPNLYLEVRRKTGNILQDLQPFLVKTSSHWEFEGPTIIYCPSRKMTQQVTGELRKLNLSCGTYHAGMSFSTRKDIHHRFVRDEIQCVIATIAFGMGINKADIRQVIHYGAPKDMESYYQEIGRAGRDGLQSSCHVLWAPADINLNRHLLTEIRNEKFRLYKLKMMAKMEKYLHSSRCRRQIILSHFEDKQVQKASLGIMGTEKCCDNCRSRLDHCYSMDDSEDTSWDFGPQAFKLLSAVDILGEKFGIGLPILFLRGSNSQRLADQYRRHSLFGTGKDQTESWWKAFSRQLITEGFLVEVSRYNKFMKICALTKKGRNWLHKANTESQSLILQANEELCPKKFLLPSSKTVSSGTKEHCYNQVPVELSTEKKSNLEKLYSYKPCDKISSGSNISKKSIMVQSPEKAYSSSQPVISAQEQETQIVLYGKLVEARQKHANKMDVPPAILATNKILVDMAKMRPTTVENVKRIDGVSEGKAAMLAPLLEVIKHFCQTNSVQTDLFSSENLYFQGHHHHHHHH

| SMILES | IC50 [µM] |
| --- | --- |
| COc1cc(CN(C(=O)Cc2ccc([C@@H]3C[C@H]3C(F)(F)F)cc2)[C@@H]2C=CS(=O)(=O)C2)ccn1 (mixture of isomers) [I-784, N-[(3R)-1,1-dioxo-2,3-dihydro-1lambda6-thiophen-3-yl]-N-[(2-methoxypyridin-4-yl)methyl]-2-{4-[(1RS,2RS)-2-(trifluoromethyl)cyclopropyl]phenyl}acetamide] | 5 to 10 |
| O=C([C@H]1CC[C@@H](c2ccccc2)O1)N(Cc1ccncc1)C1C=CS(=O)(=O)C1 (mixture of isomers) [I-652, rac-(2R,5S)-N-(1,1-dioxo-2,3-dihydro-1lambda6-thiophen-3-yl)-5-phenyl-N-[(pyridin-4-yl)methyl]oxolane-2-carboxamide] | > 50 |
| O=C([C@@H]1CC[C@@H](c2ccccc2)C1)N(Cc1ccncc1)C1C=CS(=O)(=O)C1 (mixture of isomers) [I-655, rac-(1R,3R)-N-(1,1-dioxo-2,3-dihydro-1lambda6-thiophen-3-yl)-3-phenyl-N-[(pyridin-4-yl)methyl]cyclopentane-1-carboxamide] | > 50 |
| O=C([C@H]1CC[C@@H](C(F)(F)F)O1)N(Cc1ccncc1)C1C=CS(=O)(=O)C1 (mixture of isomers) [I-714, rac-(2R,5S)-N-(1,1-dioxo-2,3-dihydro-1lambda6-thiophen-3-yl)-N-[(pyridin-4-yl)methyl]-5-(trifluoromethyl)oxolane-2-carboxamide] | > 50 |
| O=C([C@@H]1[C@H]2C[C@]1(c1cccc(F)c1)CO2)N(Cc1ccncc1)C1C=CS(=O)(=O)C1 (mixture of isomers) [I-715, rac-(1R,4S,5S)-N-(1,1-dioxo-2,3-dihydro-1lambda6-thiophen-3-yl)-4-(3-fluorophenyl)-N-[(pyridin-4-yl)methyl]-2-oxabicyclo[2.1.1]hexane-5-carboxamide] | > 50 |
| O=C([C@H]1CC[C@@H](Cn2cccn2)O1)N(Cc1ccncc1)C1C=CS(=O)(=O)C1 (mixture of isomers) [I-716, rac-(2R,5S)-N-(1,1-dioxo-2,3-dihydro-1lambda6-thiophen-3-yl)-5-[(1H-pyrazol-1-yl)methyl]-N-[(pyridin-4-yl)methyl]oxolane-2-carboxamide] | > 50 |
| O=C([C@@H]1[C@@H]2CC[C@@]1(c1cccc(Br)c1)C2)N(Cc1ccncc1)C1C=CS(=O)(=O)C1 (mixture of isomers) [I-755, rac-(1R,4R,5R)-1-(3-bromophenyl)-N-(1,1-dioxo-2,3-dihydro-1lambda6-thiophen-3-yl)-N-[(pyridin-4-yl)methyl]bicyclo[2.1.1]hexane-5-carboxamide] | > 50 |
| CC(C)(O)c1cc(CN(C(=O)Cc2ccc(-n3cccc3)cc2F)C2C=CS(=O)(=O)C2)ccn1 (single isomer, unassigned) [I-40] | < 0.5 |
| CC(C)(O)c1cc(CN(C(=O)Cc2ncc(-c3ccc(F)c(F)c3)cc2F)C2C=CS(=O)(=O)C2)ccn1 (single isomer, unassigned) [I-50, 2-(5-(3,4-difluorophenyl)-3-fluoropyridin-2-yl)-N-(1,1-dioxido-2,3-dihydrothiophen-3-yl)-N-((2-(2-hydroxypropan-2-yl)pyridin-4-yl)methyl)acetamide] | < 0.5 |
| O=C(Cc1ccc(S(F)(F)(F)(F)F)cc1)N(Cc1ccncc1)C1C=CS(=O)(=O)C1 (single isomer, unassigned) [I-51] | < 0.5 |
| COc1cc(CN(C(=O)Cc2ccc(C(F)(F)F)cc2)C2C=CS(=O)(=O)C2)ccn1 (single isomer, unassigned) [I-57] | < 0.5 |

Results, then the compound that gave them:

| IC50 [µM] | SMILES |
| --- | --- |
| < 0.5 | CC(C)(O)c1cc(CN(C(=O)Cn2cc(-c3cc(F)c(F)c(F)c3)cn2)C2C=CS(=O)(=O)C2)ccn1 (single isomer, unassigned) [I-1] |
| < 0.5 | COC(C(=O)N(Cc1ccnc(C(C)(C)O)c1)[C@@H]1C=CS(=O)(=O)C1)c1ccc(-c2ccc(F)c(F)c2)cc1F (single isomer, unassigned) [I-2] |
| < 0.5 | O=C(Cc1ccc(S(F)(F)(F)(F)F)cc1)N(Cc1nc(C2CC2)cs1)C1C=CS(=O)(=O)C1 (single isomer, unassigned) [I-4] |
| < 0.5 | O=C(Cn1cc(-c2ccc(F)c(F)c2)cn1)N(Cc1nc(C2CC2)cs1)C1C=CS(=O)(=O)C1 (single isomer, unassigned) [I-5, N-((4-cyclopropylthiazol-2-yl)methyl)-2-(4-(3,4-difluorophenyl)-1H-pyrazol-1-yl)-N-(1,1-dioxido-2,3-dihydrothiophen-3-yl)acetamide] |
| < 0.5 | CN(C)C(=O)C(C(=O)N(Cc1ccnc(C(C)(C)O)c1)C1C=CS(=O)(=O)C1)c1ccc(-c2ccc(F)cc2)cc1 (single isomer, unassigned) [I-8, N1-(-1,1-dioxido-2,3-dihydrothiophen-3-yl)-2-(4′-fluoro-[1,1′-biphenyl]-4-yl)-N1-((2-(2-hydroxypropan-2-yl)pyridin-4-yl)methyl)-N3,N3-dimethylmalonamide] |
| < 0.5 | COC(C(=O)N(Cc1ccnc(C(C)(C)O)c1)C1C=CS(=O)(=O)C1)c1ccc(-c2ccc(F)cc2)cc1F (single isomer, unassigned) [I-10, (2R*)-2-{3,4′-difluoro-[1,1′-biphenyl]-4-yl}-N-[(3R**)-1,1-dioxo-2,3-dihydro-1lambda6-thiophen-3-yl]-N-{[2-(2-hydroxypropan-2-yl)pyridin-4-yl]methyl}-2-methoxyacetamide] |
| < 0.5 | CC(C)(O)c1cc(CN(C(=O)Cc2ccc(-c3ccc(F)c(F)c3)cc2F)C2C=CS(=O)(=O)C2)ccn1 (single isomer, unassigned) [I-11] |
| < 0.5 | CN(C)C(=O)C(C(=O)N(Cc1ccnc(C(C)(C)O)c1)C1C=CS(=O)(=O)C1)c1ccc(-c2ccc(F)cc2)cc1F (single isomer, unassigned) [I-12, (2R**)-2-{3,4′-difluoro-[1,1′-biphenyl]-4-yl}-N-[(3R*)-1,1-dioxo-2,3-dihydro-1lambda6-thiophen-3-yl]-N-{[2-(2-hydroxypropan-2-yl)pyridin-4-yl]methyl}-N′,N′-dimethylpropanediamide] |
| < 0.5 | CN(C)C(=O)C(C(=O)N(Cc1ccncc1)C1C=CS(=O)(=O)C1)c1ccc(-c2ccc(F)cc2)cc1 (single isomer, unassigned) [I-27, (2R**)-N′-[(3R*)-1,1-dioxo-2,3-dihydro-1lambda6-thiophen-3-yl]-2-{4′-fluoro-[1,1′-biphenyl]-4-yl}-N,N-dimethyl-N′-[(pyridin-4-yl)methyl]propanediamide] |
| < 0.5 | COc1cc(CN(C(=O)Cc2ccc(-n3cccc3C)cc2F)C2C=CS(=O)(=O)C2)ccn1 (single isomer, unassigned) [I-31] |
| < 0.5 | COc1cc(CN(C(=O)C(OC)c2ccc(-c3ccc(F)cc3)cc2F)C2C=CS(=O)(=O)C2)ccn1 (single isomer, unassigned) [I-33, (2R*)-2-{3,4′-difluoro-[1,1′-biphenyl]-4-yl}-N-[(3R**)-1,1-dioxo-2,3-dihydro-1lambda6-thiophen-3-yl]-2-methoxy-N-[(2-methoxypyridin-4-yl)methyl]acetamide] |
| < 0.5 | COc1cc(CN(C(=O)Cc2ccc(-c3ccc(F)c(F)c3)cc2F)C2C=CS(=O)(=O)C2)ccn1 (single isomer, unassigned) [I-35] |
